# Data as given in PubChem BioAssay AID256 (DTP/NCI, 2004).
# Several values for one entry are separate records, joined by “and”; a condition that tells them apart may be missing. Equal entries are not always repeated. Toxic doses and inconclusive results are not listed.
# Test system: CD2F1 mice, L1210 leukemia ip, survival T/C
# Assay: NCI In Vivo Anticancer Drug Screen. Data for tumor model L1210 Leukemia (intraperitoneal) in CD2F1 (CDF1) mice
# Conditions: higher = longer survival
# Summary of the method: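 Activity against a transplanted murine tumor was judged by comparing the compound group with a vehicle group. The outcome in the treated animals was divided by that in the controls.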
# [1] = endpoint: mean survival time, dose: 200.0 mg/kg/injection, schedule: Q01DX001 (ip), vehicle: Klucel (hydroxypropylcellulose) (HPC)
# [2] = endpoint: mean survival time, dose: 400.0 mg/kg/injection, schedule: Q01DX001 (ip), vehicle: Klucel (hydroxypropylcellulose) (HPC)
# [3] = endpoint: mean survival time, dose: 100.0 mg/kg/injection, schedule: Q01DX001 (ip), vehicle: saline
# [4] = endpoint: mean survival time, dose: 200.0 mg/kg/injection, schedule: Q01DX001 (ip), vehicle: saline
# [5] = endpoint: mean survival time, dose: 400.0 mg/kg/injection, schedule: Q01DX001 (ip), vehicle: saline
# [6] = endpoint: mean survival time, dose: 100.0 mg/kg/injection, schedule: Q04DX003 (ip), vehicle: saline
# [7] = endpoint: mean survival time, dose: 200.0 mg/kg/injection, schedule: Q04DX003 (ip), vehicle: saline
# [8] = endpoint: mean survival time, dose: 400.0 mg/kg/injection, schedule: Q04DX003 (ip), vehicle: saline
# [9] = endpoint: mean survival time, dose: 100.0 mg/kg/injection, schedule: Q04DX003 (ip), vehicle: saline with Tween-80
# [10] = endpoint: mean survival time, dose: 100.0 mg/kg/injection, schedule: Q01DX009 (ip), vehicle: saline
# [11] = endpoint: mean survival time, dose: 100.0 mg/kg/injection, schedule: Q01DX009 (ip), vehicle: saline with Tween-80
# [12] = endpoint: mean survival time, dose: 200.0 mg/kg/injection, schedule: Q01DX009 (ip), vehicle: saline with Tween-80
# [13] = endpoint: mean survival time, dose: 50.0 mg/kg/injection, schedule: Q01DX009 (ip), vehicle: saline with Tween-80
structure (smiles),measurement,setting,value
O=C(CC(=O)OCc1ccc([N+](=O)[O-])cc1)OCc1ccc([N+](=O)[O-])cc1,T/C,[1],96 % of control
same,T/C,[2],93 % of control
O=C(O)C1(C(=O)O)CCCCC1.[NH2-].[NH2-].[Pt+2],T/C,"endpoint: mean survival time, dose: 12.5 mg/kg/injection, schedule: Q04DX003 (ip), vehicle: suspension in saline",108 % of control
same,T/C,"endpoint: mean survival time, dose: 25.0 mg/kg/injection, schedule: Q04DX003 (ip), vehicle: suspension in saline",122 % of control
same,T/C,"endpoint: mean survival time, dose: 80.0 mg/kg/injection, schedule: Q04DX003 (ip), vehicle: saline",182 % of control
same,T/C,"endpoint: mean survival time, dose: 100.0 mg/kg/injection, schedule: Q04DX003 (ip), vehicle: suspension in saline",112 % of control
CCOC(=O)C#Cc1cccc(C(=O)OC)c1-c1c(I)cccc1C(=O)OC,T/C,"endpoint: median survival time, dose: 12.5 mg/kg/injection, schedule: Q04DX003 (ip), vehicle: saline with Tween-80",100 % of control
same,T/C,"endpoint: median survival time, dose: 25.0 mg/kg/injection, schedule: Q04DX003 (ip), vehicle: saline with Tween-80",100 % of control
same,T/C,"endpoint: median survival time, dose: 50.0 mg/kg/injection, schedule: Q04DX003 (ip), vehicle: saline with Tween-80",88 % of control
same,T/C,"endpoint: median survival time, dose: 100.0 mg/kg/injection, schedule: Q04DX003 (ip), vehicle: saline with Tween-80",88 % of control
CCCCCCCCN(C)N=Nc1ccc(C(N)=O)cc1,T/C,"endpoint: mean survival time, dose: 79.0 mg/kg/injection, schedule: Q01DX009 (ip), vehicle: Klucel (hydroxypropylcellulose) (HPC)",104 % of control
same,T/C,"endpoint: mean survival time, dose: 118.0 mg/kg/injection, schedule: Q01DX009 (ip), vehicle: Klucel (hydroxypropylcellulose) (HPC)",114 % of control
same,T/C,"endpoint: mean survival time, dose: 175.0 mg/kg/injection, schedule: Q01DX009 (ip), vehicle: Klucel (hydroxypropylcellulose) (HPC)",117 % of control
same,T/C,"endpoint: mean survival time, dose: 177.0 mg/kg/injection, schedule: Q01DX009 (ip), vehicle: Klucel (hydroxypropylcellulose) (HPC)",110 % of control
same,T/C,"endpoint: mean survival time, dose: 266.0 mg/kg/injection, schedule: Q01DX009 (ip), vehicle: Klucel (hydroxypropylcellulose) (HPC)",122 % of control
same,T/C,"endpoint: mean survival time, dose: 400.0 mg/kg/injection, schedule: Q01DX009 (ip), vehicle: Klucel (hydroxypropylcellulose) (HPC)",113 % of control and 118 % of control
CC(=O)Oc1cc2c(=O)oc3cc(OC(C)=O)c(=O)oc3c2c(OC(C)=O)c1OC(C)=O,T/C,[3],98 % of control
same,T/C,[4],101 % of control
same,T/C,[5],110 % of control
COc1ccc2c(c1)C1(C)CCC(=O)C(C)=C1CC2 (stereo not drawn),T/C,[3],105 % of control
same,T/C,[4],98 % of control
same,T/C,[5],98 % of control
COC12C(COC(N)=O)C3=C(C(=O)C(C)=C(NC(C)C)C3=O)N1CC1NC12 (stereo not drawn),T/C,"endpoint: mean survival time, dose: 1.5 mg/kg/injection, schedule: Q01DX001 (ip), vehicle: water",96 % of control (2×) and 102 % of control
same,T/C,"endpoint: mean survival time, dose: 48.0 mg/kg/injection, schedule: Q01DX001 (ip), vehicle: water",87 % of control
CC1C(=O)OC2C1CCC1(C)C3OC3C(=O)C3(C)OC231 (stereo not drawn),T/C,"endpoint: mean survival time, dose: 100.0 mg/kg/injection, schedule: Q04DX002 (ip), vehicle: saline with Tween-80",96 % of control
O=[N+]([O-])C(Br)C(Br)c1ccccc1 (stereo not drawn),T/C,"endpoint: mean survival time, dose: 6.25 mg/kg/injection, schedule: Q01DX001 (ip), vehicle: Klucel (hydroxypropylcellulose) (HPC)",96 % of control
same,T/C,"endpoint: mean survival time, dose: 12.5 mg/kg/injection, schedule: Q01DX001 (ip), vehicle: Klucel (hydroxypropylcellulose) (HPC)",97 % of control
same,T/C,"endpoint: mean survival time, dose: 25.0 mg/kg/injection, schedule: Q01DX001 (ip), vehicle: Klucel (hydroxypropylcellulose) (HPC)",91 % of control
same,T/C,"endpoint: mean survival time, dose: 50.0 mg/kg/injection, schedule: Q01DX001 (ip), vehicle: Klucel (hydroxypropylcellulose) (HPC)",102 % of control
Nc1nc2ccc(CSc3ccc(C(=O)NC(CCC(=O)O)C(=O)O)cc3)nc2c(=O)[nH]1 (stereo not drawn),T/C,"endpoint: mean survival time, dose: 0.5 mg/kg/injection, schedule: Q01DX005 (ip), vehicle: sodium bicarbonate",103 % of control and 106 % of control
same,T/C,"endpoint: mean survival time, dose: 1.0 mg/kg/injection, schedule: Q01DX005 (ip), vehicle: sodium bicarbonate",97 % of control and 106 % of control
same,T/C,"endpoint: mean survival time, dose: 2.0 mg/kg/injection, schedule: Q01DX005 (ip), vehicle: sodium bicarbonate",97 % of control and 108 % of control
same,T/C,"endpoint: mean survival time, dose: 4.0 mg/kg/injection, schedule: Q01DX005 (ip), vehicle: sodium bicarbonate",101 % of control and 106 % of control
same,T/C,"endpoint: mean survival time, dose: 8.0 mg/kg/injection, schedule: Q01DX005 (ip), vehicle: sodium bicarbonate",97 % of control and 108 % of control
same,T/C,"endpoint: mean survival time, dose: 16.0 mg/kg/injection, schedule: Q01DX005 (ip), vehicle: sodium bicarbonate",102 % of control and 103 % of control
O=c1[nH]c2ccc(Cl)cc2c2ccccc12,T/C,"endpoint: mean survival time, dose: 100.0 mg/kg/injection, schedule: Q01DX001 (ip), vehicle: carboxymethylcellulose (CMC)",91 % of control
same,T/C,"endpoint: mean survival time, dose: 200.0 mg/kg/injection, schedule: Q01DX001 (ip), vehicle: carboxymethylcellulose (CMC)",97 % of control
same,T/C,"endpoint: mean survival time, dose: 400.0 mg/kg/injection, schedule: Q01DX001 (ip), vehicle: carboxymethylcellulose (CMC)",105 % of control
O=C(O)CSCSCC(=O)O,T/C,[6],97 % of control
same,T/C,[7],100 % of control
same,T/C,[8],97 % of control
Nc1nc(N)nc(Cc2ccccc2)n1,T/C,"endpoint: mean survival time, dose: 100.0 mg/kg/injection, schedule: Q01DX001 (ip), vehicle: saline with Tween-80",104 % of control
same,T/C,"endpoint: mean survival time, dose: 200.0 mg/kg/injection, schedule: Q01DX001 (ip), vehicle: saline with Tween-80",103 % of control
same,T/C,"endpoint: mean survival time, dose: 400.0 mg/kg/injection, schedule: Q01DX001 (ip), vehicle: saline with Tween-80",95 % of control
CCOC1=NN(c2ccccc2)C(=O)C1,T/C,[9],97 % of control
same,T/C,"endpoint: mean survival time, dose: 200.0 mg/kg/injection, schedule: Q04DX003 (ip), vehicle: saline with Tween-80",100 % of control
same,T/C,"endpoint: mean survival time, dose: 400.0 mg/kg/injection, schedule: Q04DX003 (ip), vehicle: saline with Tween-80",103 % of control
C#CC(C)(C)CC(=O)O,T/C,[10],102 % of control
same,T/C,"endpoint: mean survival time, dose: 200.0 mg/kg/injection, schedule: Q01DX009 (ip), vehicle: saline",101 % of control
same,T/C,"endpoint: mean survival time, dose: 400.0 mg/kg/injection, schedule: Q01DX009 (ip), vehicle: saline",98 % of control
CCCCCCCCCCCCCCCC[N+](C)(C)CC#CCCl,T/C,"endpoint: mean survival time, dose: 6.25 mg/kg/injection, schedule: Q04DX002 (ip), vehicle: saline with Tween-80",96 % of control
same,T/C,"endpoint: mean survival time, dose: 12.5 mg/kg/injection, schedule: Q04DX002 (ip), vehicle: saline with Tween-80",88 % of control
same,T/C,"endpoint: mean survival time, dose: 25.0 mg/kg/injection, schedule: Q04DX002 (ip), vehicle: saline with Tween-80",88 % of control
COC(=O)C(=O)O,T/C,[11],93 % of control
same,T/C,[6],95 % of control
same,T/C,[12],95 % of control
same,T/C,[7],104 % of control
same,T/C,[8],93 % of control
CCCN(CCC)S(=O)(=O)c1ccc(NC(=O)Oc2cc(C)ccc2C(C)C)cc1,T/C,[3],100 % of control
same,T/C,[4],95 % of control
same,T/C,[5],94 % of control
CCCCCCCCCCCCCCCC(O)S(=O)(=O)O (stereo not drawn),T/C,[13],93 % of control
same,T/C,[11],94 % of control
CCC(C)C(=O)CN(C)C (stereo not drawn),T/C,[6],100 % of control
same,T/C,[7],96 % of control
C1N2CN3CN1CN(C2)C3.[Cl][Pt][Cl],T/C,"endpoint: mean survival time, dose: 25.0 mg/kg/injection, schedule: Q04DX003 (ip), vehicle: saline with Tween-80",123 % of control
same,T/C,"endpoint: mean survival time, dose: 50.0 mg/kg/injection, schedule: Q04DX003 (ip), vehicle: saline with Tween-80",101 % of control
same,T/C,[9],98 % of control
NC(=O)c1nccnc1C(N)=O,T/C,"endpoint: mean survival time, dose: 100.0 mg/kg/injection, schedule: Q01DX001 (ip), vehicle: Klucel (hydroxypropylcellulose) (HPC)",101 % of control
same,T/C,[1],108 % of control
same,T/C,[2],101 % of control
CCCCCCCC/C=C/CCCCCCCCCCCCBr,T/C,[11],104 % of control
same,T/C,[6],98 % of control
same,T/C,[12],93 % of control
same,T/C,[7],97 % of control
same,T/C,"endpoint: mean survival time, dose: 400.0 mg/kg/injection, schedule: Q01DX009 (ip), vehicle: saline with Tween-80",103 % of control
same,T/C,[8],92 % of control
N#CCCNCCNCCC#N,T/C,[13],96 % of control
same,T/C,[11],104 % of control
same,T/C,[12],104 % of control
CC(=O)OCC1OC(N2CN=C(N)NC2=O)C(OC(C)=O)C1OC(C)=O (stereo not drawn),T/C,"endpoint: mean survival time, dose: 3.12 mg/kg/injection, schedule: Q01DX009 (ip), vehicle: saline",109 % of control
same,T/C,"endpoint: mean survival time, dose: 6.25 mg/kg/injection, schedule: Q01DX009 (ip), vehicle: saline",108 % of control
same,T/C,"endpoint: mean survival time, dose: 12.5 mg/kg/injection, schedule: Q01DX009 (ip), vehicle: saline",115 % of control and 110 % of control
same,T/C,"endpoint: mean survival time, dose: 50.0 mg/kg/injection, schedule: Q01DX009 (ip), vehicle: saline",178 % of control and 183 % of control
same,T/C,[10],203 % of control and 208 % of control
CN(C)C=Nc1ccc([N+](=O)[O-])c2ccccc12,T/C,"endpoint: mean survival time, dose: 100.0 mg/kg/injection, schedule: Q01DX009 (ip), vehicle: other",105 % of control
same,T/C,"endpoint: mean survival time, dose: 200.0 mg/kg/injection, schedule: Q01DX009 (ip), vehicle: other",103 % of control
same,T/C,"endpoint: mean survival time, dose: 400.0 mg/kg/injection, schedule: Q01DX009 (ip), vehicle: other",96 % of control
